This is an account of results in US12325690B2, “Compounds for the reducing lipotoxic damage” (Mayo Foundation for Medical Education and Research, priority 2017, dated 2025).

In one series the target is T1, pancreatic lysate lipase (Mus musculus, UniProt Q6P8U6).
T1 construct: efficacy against mouse pancreatic lysates; other: summary of strengths of 767; efficacy as a solution when left overnight; other: solution left overnight; efficacy in the lipase activity assay compared with orlistat when fresh; other: fresh solution; IC50 of orlistat after overnight incubation (nearest tested concentration); other: after overnight incubation; improvement in stability and e
T1 sequence (Q6P8U6 17-465): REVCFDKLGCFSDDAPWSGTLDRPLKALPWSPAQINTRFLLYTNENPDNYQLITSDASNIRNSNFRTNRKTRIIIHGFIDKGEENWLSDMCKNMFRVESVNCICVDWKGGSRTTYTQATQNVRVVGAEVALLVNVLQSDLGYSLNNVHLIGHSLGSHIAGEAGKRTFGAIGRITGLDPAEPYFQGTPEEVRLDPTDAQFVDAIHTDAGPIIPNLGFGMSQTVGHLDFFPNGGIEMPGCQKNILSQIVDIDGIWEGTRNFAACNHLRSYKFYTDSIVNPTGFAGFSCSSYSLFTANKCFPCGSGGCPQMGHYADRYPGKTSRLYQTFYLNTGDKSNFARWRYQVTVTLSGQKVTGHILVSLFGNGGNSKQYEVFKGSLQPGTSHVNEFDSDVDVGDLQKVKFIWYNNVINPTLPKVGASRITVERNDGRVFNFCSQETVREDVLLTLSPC
The series can be described thus: Lipase activity assay with pancreatic lysate (commercial Pointe scientific lipase assay). The series is classed as biochemical. How it is done:
To test the efficacy of these compounds, the agents were dissolved as a 20 mM stock in ethanol, and further diluted to in PBS as a 600 micromolar working stock (3.3% ethanol). This was either used immediately or left at room temperature for 16-20 hours overnight before retesting efficacy. The agents were incubated with a pancreatic lysate in serial ⅓ dilutions spanning a range of 200 to 0.3 micromolars for 30 minutes. 5 microliters of these mixtures were then used to measure lipase activity using a commercial lipase assay (Pointe scientific) containing a monoacyl glycerol lipase in the reagent. The lipase assay was done using reagents in proportion to the recommended protocol. Values were depicted as % maximal lipase activity of the well without any inhibitor.

The test system of series [1] is ob/ob mice with severe pancreatitis. The series can be described thus: Caerulein-induced severe pancreatitis in obese ob/ob mice. Conditions: 20 mg/kg single intraperitoneal dose.
Experimental: Genetically obese male ob/ob mice (50-60 gm) were used and baseline tail vein blood draw was collected for serum lipase, triglycerides, and BUN (blood urea nitrogen). […] Severe pancreatitis was induced by implanting an alzet pump subcutaneously containing 2.5 mg/ml caerulein, which was administered at a dose of 50 mc/kg/hr. Six hours later a tail vein sample (50 microliters) was tested for serum lipase to verify an increase >3 fold basal.
Animals were sacrificed if they were moribund.
Series [2] relates to Mouse pancreatic acinar cells. Nature of the series: Toxicity study in pancreatic acinar cells (ATP levels, LDH leakage). The class given is cell-based. Conditions: 4 hours, 20-200 micromolar range. How it is done: Toxicity studies of the relevant compounds were also performed using by diluting the original ethanol stock 200 mM into the incubation medium for acinar cells (HEPES buffer, pH 7.4, as described by Navina et al) 600 micromolar stock solutions of the compounds in 0.3% ethanol in PBS. These were added to acinar cells at ⅓ dilutions starting at 200 micromolar. Mouse pancreatic acinar ATP levels and LDH leakage were measured over 4 hours and compared to control. Any number positive over control indicates % injury greater than control acini.
A general note: Release of lactate dehydrogenase indicates damage to the cell membrane.

Series [3] deals with Propionibacterium acnes (Strain VPI0389, ATCC). The series can be described thus: Lipolysis / FFA generation by P. acnes culture. The series is classed as cell-based. Conditions: broth FFA generation and spirit blue agar. Here is the method: For medium, 2.0 g of Casein hydrolysate enzymatic digest (Cat #12855, Affymetrix Inc, Ohio, USA), 1.0 g of Yeast extract (Cat #61180-5000, Acros organics, New Jersey, USA) and 0.03 g of Victoria Blue B (Cat #sc-216055, Santa Crutz Biotechnology Inc, California, USA) were dissolved completely in 200 ml of double distilled water with mild heating. The mixed solution was sterilized by autoclaving at 15 lbs pressure (121° C.) for 15 min. The autoclaved solution allowed to cool down to 50° C., then 6 ml of emulsified lipase substrate slowly added with continuous stirring to get an even distribution and stored at 4° C. for P. acnes culture.
Lipase substrate preparation: Lipase substrate was prepared by mixing 200 μl of Tween 80 (Cat #P4780, Sigma, St louis, USA) in 100 ml of warm double distilled water and 25 ml of Cotton seeds oil (Cat #C0145, Spectrum chemical, California, USA). […]
A small part of lyophilized Propionibacterium acnes (Strain VPI0389, ATCC) was added to the medium and allowed to grow at 37° C. for 48 h in a BD GasPak EZ standard incubation container (Cat #260671, Beckton Dickinson, MD, USA) with two anaerobe Sachets (Cat #260683, Beckton Dickinson, MD, USA) which maintained the anaerobic condition within the container. After 48 h of culture, bacterial count was measured by turbidity (OD600 nm) method. […]

The target of series [4] is T2, carboxyester lipase (hCEL) (Homo sapiens, UniProt P19835).
T2 sequence (P19835 21-753): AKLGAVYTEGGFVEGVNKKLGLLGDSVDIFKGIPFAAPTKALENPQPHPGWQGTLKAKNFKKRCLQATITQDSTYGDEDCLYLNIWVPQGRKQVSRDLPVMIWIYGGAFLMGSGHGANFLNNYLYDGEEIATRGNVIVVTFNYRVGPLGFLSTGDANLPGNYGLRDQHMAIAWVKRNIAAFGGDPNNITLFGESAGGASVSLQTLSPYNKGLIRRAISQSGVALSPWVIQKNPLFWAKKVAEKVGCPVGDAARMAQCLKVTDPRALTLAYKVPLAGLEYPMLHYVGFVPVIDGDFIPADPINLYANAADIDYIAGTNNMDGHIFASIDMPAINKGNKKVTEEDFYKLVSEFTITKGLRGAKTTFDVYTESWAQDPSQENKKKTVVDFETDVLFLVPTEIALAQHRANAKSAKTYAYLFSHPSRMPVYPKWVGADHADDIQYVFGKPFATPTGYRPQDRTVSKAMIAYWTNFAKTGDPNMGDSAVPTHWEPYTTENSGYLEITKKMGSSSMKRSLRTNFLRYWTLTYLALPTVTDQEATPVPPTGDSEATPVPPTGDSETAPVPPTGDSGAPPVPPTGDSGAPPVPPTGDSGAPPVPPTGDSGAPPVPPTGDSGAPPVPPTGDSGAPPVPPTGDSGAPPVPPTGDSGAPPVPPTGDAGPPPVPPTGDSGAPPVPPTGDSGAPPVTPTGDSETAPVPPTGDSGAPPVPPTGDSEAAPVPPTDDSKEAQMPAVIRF
Nature of the series: FFA generation by recombinant hCEL. The class given is biochemical. Conditions: % FFA generation; read-out: IC50 against hCEL. Here is the method:
(§1) The efficacy of a selection of the prepared analogs was explored to determine their ability to inhibit free fatty acid (FFA) generation from recombinant human lipases while retaining stability. To test these features, the analogs were dissolved in ethanol (200 mM stock) and further diluted to a 600 micromolar (0.3% ethanol) working stock in PBS. The agents were incubated with the recombinant enzymes in serial ⅓ dilutions spanning a range of 200 to 0.3 micromolar for 30 minutes, and then added to the substrate 1 mM glyceryl trilinoleate (GTL) in PBS, pH 7.4 along with cofactor colipase (CLPS; 0.5 mcg/ml).
(§2) These lipases form 15-30% of pancreatic lipases.

Series [5] deals with T3, recombinant human pancreatic lipase related protein 2 (hPLRP2) (Homo sapiens, UniProt P54317).
T3 sequence (P54317 18-469): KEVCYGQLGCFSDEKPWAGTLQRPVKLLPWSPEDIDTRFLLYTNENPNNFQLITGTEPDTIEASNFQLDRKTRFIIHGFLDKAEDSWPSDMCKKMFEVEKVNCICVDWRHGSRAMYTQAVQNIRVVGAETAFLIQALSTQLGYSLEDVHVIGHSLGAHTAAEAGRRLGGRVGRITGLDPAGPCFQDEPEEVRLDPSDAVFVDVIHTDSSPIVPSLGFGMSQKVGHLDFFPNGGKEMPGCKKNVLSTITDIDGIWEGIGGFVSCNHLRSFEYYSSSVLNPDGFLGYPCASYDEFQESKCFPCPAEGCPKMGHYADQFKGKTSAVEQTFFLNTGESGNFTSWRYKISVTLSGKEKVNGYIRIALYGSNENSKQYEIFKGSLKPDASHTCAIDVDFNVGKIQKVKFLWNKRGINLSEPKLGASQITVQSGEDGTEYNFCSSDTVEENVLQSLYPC
Nature of the series: FFA generation by recombinant hPLRP2. The series is classed as biochemical. To be noted: % FFA generation; read-out: IC50 against hPLRP2. How it is done: as §1, §2

Series [6] deals with T4, recombinant human pancreatic tri-acyl glycerol lipase [PNLIP; hPTL] (Homo sapiens, UniProt P16233).
T4 sequence (P16233 17-465): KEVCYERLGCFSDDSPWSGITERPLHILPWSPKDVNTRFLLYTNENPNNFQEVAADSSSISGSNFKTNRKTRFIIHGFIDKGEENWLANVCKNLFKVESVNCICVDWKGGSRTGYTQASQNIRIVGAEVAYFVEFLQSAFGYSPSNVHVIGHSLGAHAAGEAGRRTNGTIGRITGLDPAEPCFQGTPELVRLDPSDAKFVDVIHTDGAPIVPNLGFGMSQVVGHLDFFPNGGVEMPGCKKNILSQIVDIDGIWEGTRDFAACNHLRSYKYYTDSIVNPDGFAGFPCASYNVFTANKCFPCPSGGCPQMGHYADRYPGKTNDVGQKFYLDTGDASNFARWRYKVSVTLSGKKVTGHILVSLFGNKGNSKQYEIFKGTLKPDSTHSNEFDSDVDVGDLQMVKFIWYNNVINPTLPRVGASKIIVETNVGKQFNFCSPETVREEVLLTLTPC
T4 sequence (P04118 23-112 partner): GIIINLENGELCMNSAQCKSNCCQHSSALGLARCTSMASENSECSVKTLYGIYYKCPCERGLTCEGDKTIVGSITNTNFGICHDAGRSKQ
The series can be described thus: FFA generation from glyceryl trilinoleate by recombinant hPNLIP with colipase. The series is classed as biochemical. Here is the method: as §1

In series [7] the test system is acinar cells incubated with GTL. The series can be described thus: GTL induced acinar injury (LDH leakage). The series is classed as cell-based. To be noted: 10 micromolar.
From the text: as §2

A word on the pIC50: it is the negative decadic logarithm of the IC50, by convention in mol/L.

pIC50: −log10 of the molar value. Entries after “also recorded” stand apart in the source; their conditions may differ.

As to `CCCCCCCCCCC[C@@H](C[C@@H]1OC(=O)[C@H]1CC)OC(=O)[C@H](C)NC=O` [Compound 767], on pancreatic lysate lipase (fresh solution), the “efficacy in the lipase activity assay compared with orlistat when fresh” value was “equivalent efficacy”. For the same compound, the “efficacy as a solution when left overnight” value at pancreatic lysate lipase (solution left overnight) is on record as “significantly retained its efficacy”. The “efficacy against mouse pancreatic lysates” value on pancreatic lysate lipase (summary of strengths of 767) is given as “higher efficacy”. In series [1], the 5 day survival is reported as 8/8; the “PD (pulse distention, shock)” value was determined as 290±20 μm; the UFAs turned out to be 2.4 ± 0.4 mM; the hypertriglyceridemia entry is “without the hypertriglyceridemia”. Also, in series [1], the “leucopenia (mice affected)” value is given as 0/8, the serum calcium is 8.8 ± 1.0 mg/dL and the “temperature (hypothermia)” value turned out to be 94.1±0.8 ° F. Besides, the “BUN (peak)” value in series [1] (caerulein pancreatitis) stood at 18.5 ± 0.9 mg/dL. For the same compound, the “toxicity to acinar cells” value in series [2] is “lower toxicity”. For the same compound, the “lipolysis by P. acnes” value in series [3] is reported as “inhibited”. The negative-log IC50 (pIC50) in series [4] is at least 5.70. Further, in series [5], the pIC50 is at least 5.70. In addition, in series [6] (in the presence of colipase (CLPS), 1 mM GTL substrate), the “IC50 against hPNLIP, fold lower than orlistat or 741” value is given as 50 ×. The “stability in aqueous solution” value in series [6] (retention of inhibition after overnight storage) was “best stability; also recorded: better stability in aqueous media”. In addition, in series [6] (solution stored overnight, with colipase, read-out: IC50 against hPNLIP when stored overnight), the pIC50 was above 5.70. In series [6] (summary of strengths of 767), the “potency against the most prevalent lipase (hPTL)” value is “higher potency”. Also, in series [7] (LDH leakage), the “efficacy in reducing GTL induced acinar injury compared with orlistat” value is “more efficacious”. Further, in series [7] (acinar cells), the “toxicity compared with orlistat” value is listed as “less toxic”.
